Experimental data from the CheMixHub viscosity set.

Test: xn = mol fraction of the nth substance listed

Oc1ccccc1Cl + COCCO
viscosity [mPa·s], 101 kPa
Conditions	x1 = 0.0797	x1 = 0.163	x1 = 0.2503	x1 = 0.3418	x1 = 0.4379	x1 = 0.5388	x1 = 0.6451	x1 = 0.757	x1 = 0.8752
303.15 K	1.925	2.342	2.78	3.204	3.56	3.811	3.884	3.735	3.376
308.15 K	1.81	2.126	2.456	2.776	3.04	3.212	3.268	3.166	2.898
313.15 K	1.479	1.762	2.055	2.335	2.586	2.765	2.842	2.785	2.593
318.15 K	1.34	1.572	1.805	2.03	2.227	2.37	2.445	2.419	2.282

CCCN + COCCOC
298.15 K, 101 kPa
Conditions	viscosity [mPa·s]
x1 = 0.0189	0.415
x2 = 0.0057	0.356
x2 = 0.0115	0.357
x2 = 0.032	0.358
x2 = 0.0568	0.36
x2 = 0.0815	0.362
x2 = 0.1075	0.364
x2 = 0.1552	0.368
x2 = 0.1871	0.369
x2 = 0.2467	0.372
x2 = 0.2882	0.373
x2 = 0.3386	0.374
x2 = 0.3526	0.374
x2 = 0.3761	0.374
x2 = 0.4134	0.375
x2 = 0.4707	0.378
x2 = 0.5131	0.38
x2 = 0.5662	0.381
x2 = 0.6099	0.383
x2 = 0.6466	0.386
x2 = 0.7017	0.39
x2 = 0.74	0.392
x2 = 0.8022	0.397
x2 = 0.833	0.399
x2 = 0.8785	0.403
x2 = 0.9167	0.408
x2 = 0.9436	0.411

CCCN + COCCOCCO
298.15 K, 101 kPa
Conditions	viscosity [mPa·s]
x2 = 0.0255	0.399
x2 = 0.0563	0.444
x2 = 0.0879	0.493
x2 = 0.1249	0.562
x2 = 0.1605	0.634
x2 = 0.2036	0.735
x2 = 0.2453	0.842
x2 = 0.2996	1.01
x2 = 0.3405	1.159
x2 = 0.3854	1.334
x2 = 0.4144	1.455
x2 = 0.4488	1.601
x2 = 0.4769	1.726
x2 = 0.5252	1.953
x2 = 0.5736	2.163
x2 = 0.6235	2.386
x2 = 0.6581	2.523
x2 = 0.7072	2.718
x2 = 0.7563	2.892
x2 = 0.7974	3.02
x2 = 0.8476	3.165
x2 = 0.8779	3.225
x2 = 0.9088	3.297
x2 = 0.9387	3.351
x2 = 0.9526	3.375

CCCN + COCCOCCOC
298.15 K, 101 kPa
Conditions	viscosity [mPa·s]
x1 = 0.0113	0.985
x2 = 0.0044	0.359
x2 = 0.0179	0.368
x2 = 0.0461	0.385
x2 = 0.0659	0.4
x2 = 0.0913	0.417
x2 = 0.1293	0.443
x2 = 0.1685	0.472
x2 = 0.1892	0.487
x2 = 0.2354	0.518
x2 = 0.2682	0.541
x2 = 0.2727	0.544
x2 = 0.315	0.575
x2 = 0.3201	0.579
x2 = 0.3647	0.613
x2 = 0.3683	0.615
x2 = 0.4079	0.644
x2 = 0.4628	0.679
x2 = 0.5243	0.721
x2 = 0.5823	0.757
x2 = 0.6408	0.796
x2 = 0.7358	0.84
x2 = 0.79	0.873
x2 = 0.8565	0.908
x2 = 0.897	0.935
x2 = 0.9375	0.955

CCCN + COCCOCCOCCOC
298.15 K, 101 kPa
Conditions	viscosity [mPa·s]
x2 = 0.0076	0.366
x2 = 0.0166	0.375
x2 = 0.0296	0.393
x2 = 0.0659	0.44
x2 = 0.0954	0.48
x2 = 0.1298	0.526
x2 = 0.1596	0.567
x2 = 0.1909	0.611
x2 = 0.2265	0.659
x2 = 0.2351	0.673
x2 = 0.2622	0.711
x2 = 0.2681	0.721
x2 = 0.3073	0.782
x2 = 0.3623	0.864
x2 = 0.4044	0.935
x2 = 0.4583	1.022
x2 = 0.5139	1.115
x2 = 0.5761	1.225
x2 = 0.6483	1.365
x2 = 0.6867	1.435
x2 = 0.745	1.549
x2 = 0.8308	1.72
x2 = 0.8787	1.805
x2 = 0.9203	1.862
x2 = 0.9618	1.917

CC(C)C(C)O (configuration not stated) + COc1ccccc1
viscosity [mPa·s], 101.33 kPa
Conditions	x2 = 0.1006	x2 = 0.2007	x2 = 0.3004	x2 = 0.4	x2 = 0.5008	x2 = 0.6009	x2 = 0.6997	x2 = 0.8003	x2 = 0.8998
303.15 K	2.405	1.858	1.476	1.223	1.067	0.981	0.937	0.919	0.913
313.15 K	1.731	1.397	1.157	0.991	0.889	0.832	0.808	0.799	0.794
323.15 K	1.273	1.066	0.925	0.83	0.771	0.736	0.718	0.707	0.699

Clc1ccccc1Cl + COc1ccccc1
viscosity [mPa·s], 101 kPa
Conditions	x2 = 0.0977	x2 = 0.1979	x2 = 0.3012	x2 = 0.403	x2 = 0.4955	x2 = 0.5995	x2 = 0.6967	x2 = 0.7951	x2 = 0.8931
298.15 K	1.201	1.172	1.142	1.118	1.097	1.081	1.056	1.037	1.022
303.15 K	1.121	1.094	1.067	1.042	1.019	1	0.9808	0.9631	0.9486
308.15 K	1.046	1.02	0.9938	0.9716	0.949	0.9288	0.9098	0.8944	0.881
313.15 K	0.9762	0.9514	0.9268	0.9045	0.8869	0.8664	0.8479	0.832	0.8178
